Reference: patent US20050234046A1 (Kalypsys, Inc., priority 2004, published 2005)

Experiments:
Test in all cases: Transient transfection (transactivation) assay in CV-1 cells, GAL4-PPAR chimera, luciferase reporter
Type in all cases: cell-based
PPAR gamma = target: T1, PPAR gamma (Homo sapiens, UniProt P37231)
T1 construct: expressed in transfected cells; host or cells: CV-1 cells
T1 sequence (P37231 238-503 limits assumed): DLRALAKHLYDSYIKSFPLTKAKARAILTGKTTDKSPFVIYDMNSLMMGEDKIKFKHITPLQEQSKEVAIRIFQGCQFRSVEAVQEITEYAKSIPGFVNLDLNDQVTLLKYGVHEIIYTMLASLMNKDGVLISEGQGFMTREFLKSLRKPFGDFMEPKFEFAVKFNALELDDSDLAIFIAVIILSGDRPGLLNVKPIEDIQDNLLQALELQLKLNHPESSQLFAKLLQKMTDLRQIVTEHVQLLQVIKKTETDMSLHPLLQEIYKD

PPAR alpha = target: T2, PPAR alpha (Homo sapiens, UniProt Q07869)
T2 construct: expressed in transfected cells; host or cells: CV-1 cells
T2 sequence (Q07869 239-466 limits assumed): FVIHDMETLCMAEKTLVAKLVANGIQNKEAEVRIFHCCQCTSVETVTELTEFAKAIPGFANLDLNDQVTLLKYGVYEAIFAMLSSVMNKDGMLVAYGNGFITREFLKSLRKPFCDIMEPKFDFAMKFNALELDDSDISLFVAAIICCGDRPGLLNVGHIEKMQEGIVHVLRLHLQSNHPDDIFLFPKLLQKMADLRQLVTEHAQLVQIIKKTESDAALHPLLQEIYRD
In short: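 GAL4 DNA-binding domain fused to PPAR ligand binding domain, co-transfected into CV-1 cells with a luciferase reporter carrying four or five GAL4 sites. Replated cells in phenol-red free DME with 5% delipidated calf serum were treated with compound or 1% DMSO for 20-24 hours; luciferase read for EC50 and efficacy.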

PPAR delta = target: T3, PPAR delta (Homo sapiens, UniProt Q03181)
T3 construct: expressed in transfected cells; host or cells: CV-1 cells
T3 sequence (Q03181 211-439 limits assumed): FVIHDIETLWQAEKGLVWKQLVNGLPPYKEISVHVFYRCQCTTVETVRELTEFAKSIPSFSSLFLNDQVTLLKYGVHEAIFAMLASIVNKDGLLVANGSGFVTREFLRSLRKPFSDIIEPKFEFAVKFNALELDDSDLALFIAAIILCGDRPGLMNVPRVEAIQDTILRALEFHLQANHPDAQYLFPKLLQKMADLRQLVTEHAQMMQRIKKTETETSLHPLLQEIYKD

Row | SMILES | EC50 (PPAR gamma) [µM] | EC50 (PPAR alpha) [µM] | EC50 (PPAR delta) [µM]
1 | O=C(O)Cc1cccc(S(=O)(=O)N2CCN(C3CCCCC3)CC2)c1 [Example 130, [3-(4-Cyclohexyl-piperazine-1-sulfonyl)-phenyl]-acetic acid] | 5 to 100 | > 100 | > 100
2 | N#Cc1ccccc1N1CCN(S(=O)(=O)c2cccc(CC(=O)O)c2)CC1 [Example 133, {3-[4-(2-Cyano-phenyl)-piperazine-1-sulfonyl]-phenyl}-acetic acid] | > 100 | > 100 | > 100
3 | O=C(O)Cc1cccc(S(=O)(=O)N2CCN(C(c3ccccc3)c3ccc(Cl)cc3)CC2)c1 (stereo not drawn) [Example 134, (3-{4-[(4-Chloro-phenyl)-phenyl-methyl]-piperazine-1-sulfonyl}-phenyl)-acetic, acid] | 5 to 100 | > 100 | > 100
4 | O=C(O)Cc1cccc(S(=O)(=O)N2CCN(c3ccc([N+](=O)[O-])cc3)CC2)c1 [Example 135, {3-[4-(4-Nitro-phenyl)-piperazine-1-sulfonyl]-phenyl}-acetic acid] | > 100 | > 100 | 5 to 100
5 | O=C(O)Cc1cccc(S(=O)(=O)N2CCN(C(=O)c3ccco3)CC2)c1 [Example 136, {3-[4-(Furan-2-carbonyl)-piperazine-1-sulfonyl]-phenyl}-acetic acid] | > 100 | > 100 | > 100
6 | O=C(O)Cc1cccc(S(=O)(=O)N2CCN(c3cccc(Cl)c3)CC2)c1 [Example 139, {3-[4-(3-Chloro-phenyl)-piperazine-1-sulfonyl]-phenyl}-acetic acid] | 5 to 100 | > 100 | 5 to 100
7 | O=C(O)Cc1cccc(S(=O)(=O)N2CCN(c3ccccc3F)CC2)c1 [Example 141, {3-[4-(2-Fluoro-phenyl)-piperazine-1-sulfonyl]-phenyl}-acetic acid] | > 100 | > 100 | 5 to 100
8 | CCOc1ccccc1N1CCN(S(=O)(=O)c2cccc(CC(=O)O)c2)CC1 [Example 142, {3-[4-(2-Ethoxy-phenyl)-piperazine-1-sulfonyl]-phenyl}-acetic acid] | > 100 | > 100 | > 100
9 | Cc1ccc(CC(=O)O)cc1S(=O)(=O)N1CCN(c2ccc(Cl)cc2)CC1 [Example 147, {3-[4-(4-Chloro-phenyl)-piperazine-1-sulfonyl]-4-methyl-phenyl}-acetic acid] | 5 to 100 | > 100 | < 5
10 | Cc1ccc(N2CCN(S(=O)(=O)c3cc(CC(=O)O)ccc3C)CC2)c(C)c1 [Example 148, {3-[4-(2,4-Dimethyl-phenyl)-piperazine-1-sulfonyl]-4-methyl-phenyl}-acetic acid] | > 100 | > 100 | > 100
11 | Cc1ccc(N2CCN(S(=O)(=O)c3cc(CC(=O)O)ccc3C)CC2)cc1C [Example 150, {3-[4-(3,4-Dimethyl-phenyl)-piperazine-1-sulfonyl]-4-methyl-phenyl}-acetic acid] | 5 to 100 | > 100 | 5 to 100
12 | Cc1ccc(Cl)cc1N1CCN(S(=O)(=O)c2cc(CC(=O)O)ccc2C)CC1 [Example 151, {3-[4-(5-Chloro-2-methyl-phenyl)-piperazine-1-sulfonyl]-4-methyl-phenyl}-acetic acid] | 5 to 100 | > 100 | > 100

Other lines, results leading:

Row | EC50 (PPAR gamma) [µM] | EC50 (PPAR alpha) [µM] | EC50 (PPAR delta) [µM] | SMILES
13 | > 100 | > 100 | 5 to 100 | N#Cc1ccc(N2CCN(S(=O)(=O)c3cccc(CC(=O)O)c3)CC2)cc1 [Example 122, {3-[4-(4-Cyano-phenyl)-piperazine-1-sulfonyl]-phenyl}-acetic acid]
14 | 5 to 100 | > 100 | 5 to 100 | O=C(O)Cc1cccc(S(=O)(=O)N2CCN(Cc3ccc(F)cc3)CC2)c1 [Example 123, {3-[4-(4-Fluoro-benzyl)-piperazine-1-sulfonyl]-phenyl}-acetic acid]
15 | 5 to 100 | > 100 | 5 to 100 | COc1ccc(N2CCN(S(=O)(=O)c3cccc(CC(=O)O)c3)CC2)cc1 [Example 124, {3-[4-(4-Methoxy-phenyl)-piperazine-1-sulfonyl]-phenyl}-acetic acid]
16 | 5 to 100 | 5 to 100 | 5 to 100 | O=C(O)Cc1cccc(S(=O)(=O)N2CCN(c3cccc(Br)c3)CC2)c1 [Example 125, {3-[4-(3-Bromo-phenyl)-piperazine-1-sulfonyl]-phenyl}-acetic acid]
17 | < 5 | 5 to 100 | 5 to 100 | CC(C)(C)c1ccc(N2CCN(S(=O)(=O)c3cccc(CC(=O)O)c3)CC2)cc1 [Example 126, {3-[4-(4-tert-butyl-phenyl)-piperazine-1-sulfonyl]-phenyl}-acetic acid]
18 | > 100 | > 100 | > 100 | COc1ccc(N2CCN(S(=O)(=O)c3cccc(CC(=O)O)c3)CC2)cc1OC [Example 127, {3-[4-(3,4-Dimethoxy-phenyl)-piperazine-1-sulfonyl]-phenyl}-acetic acid]
19 | 5 to 100 | 5 to 100 | 5 to 100 | O=C(O)Cc1cccc(S(=O)(=O)N2CCN(c3ccc(C(F)(F)F)cc3[N+](=O)[O-])CC2)c1 [Example 128, {3-[4-(2-Nitro-4-trifluoromethyl-phenyl)-piperazine-1-sulfonyl]-phenyl}-acetic acid]
20 | > 100 | > 100 | > 100 | COc1ccccc1N1CCN(S(=O)(=O)c2cccc(CC(=O)O)c2)CC1 [Example 129, {3-[4-(2-Methoxy-phenyl)-piperazine-1-sulfonyl]-phenyl}-acetic acid]
21 | 5 to 100 | > 100 | 5 to 100 | Cc1ccc(C)c(N2CCN(S(=O)(=O)c3cccc(CC(=O)O)c3)CC2)c1 [Example 131, {3-[4-(2,5-Dimethyl-phenyl)-piperazine-1-sulfonyl]-phenyl}-acetic acid]
22 | 5 to 100 | > 100 | > 100 | O=C(O)Cc1cccc(S(=O)(=O)N2CCN(CC3CCCCC3)CC2)c1 [Example 132, [3-(4-Cyclohexylmethyl-piperazine-1-sulfonyl)-phenyl]-acetic acid]
23 | > 100 | > 100 | > 100 | COc1cccc(N2CCN(S(=O)(=O)c3cccc(CC(=O)O)c3)CC2)c1 [Example 137, {3-[4-(3-Methoxy-phenyl)-piperazine-1-sulfonyl]-phenyl}-acetic acid]
24 | 5 to 100 | > 100 | > 100 | O=C(O)Cc1cccc(S(=O)(=O)N2CCN(C(c3ccc(F)cc3)c3ccc(F)cc3)CC2)c1 [Example 138, (3-{4-[Bis-(4-fluoro-phenyl)-methyl]-piperazine-1-sulfonyl}-phenyl)-acetic acid]
25 | > 100 | > 100 | > 100 | O=C(O)Cc1cccc(S(=O)(=O)N2CCN(c3ccccc3Cl)CC2)c1 [Example 140, {3-[4-(2-Chloro-phenyl)-piperazine-1-sulfonyl]-phenyl}-acetic acid]
26 | > 100 | 5 to 100 | 5 to 100 | O=C(O)Cc1cccc(S(=O)(=O)N2CCN(C/C=C/c3ccccc3)CC2)c1 [Example 143, {3-[4-(3-Phenyl-allyl)-piperazine-1-sulfonyl]-phenyl}-acetic acid]
27 | 5 to 100 | > 100 | 5 to 100 | O=C(O)Cc1cccc(S(=O)(=O)N2CCN(c3ccc(F)cc3)CC2)c1 [Example 144, {3-[4-(4-Fluoro-phenyl)-piperazine-1-sulfonyl]-phenyl}-acetic acid]
28 | > 100 | > 100 | 5 to 100 | O=C(O)Cc1cccc(S(=O)(=O)N2CCN(c3ccccc3)CC2)c1 [Example 145, [3-(4-Phenyl-piperazine-1-sulfonyl)-phenyl]-acetic acid]
29 | 5 to 100 | > 100 | > 100 | O=C(O)Cc1cccc(S(=O)(=O)N2CCN(C(c3ccccc3)c3ccccc3)CC2)c1 [Example 146, [3-(4-Benzhydryl-piperazine-1-sulfonyl)-phenyl]-acetic acid]
30 | 5 to 100 | > 100 | > 100 | Cc1cccc(N2CCN(S(=O)(=O)c3cc(CC(=O)O)ccc3C)CC2C)c1 (stereo not drawn) [Example 149, [4-Methyl-3-(3-methyl-4-m-tolyl-piperazine-1-sulfonyl)-phenyl]-acetic acid]
31 | 5 to 100 | > 100 | > 100 | Cc1ccc(CC(=O)O)cc1S(=O)(=O)N1CCN(CCc2ccccc2)CC1 [Example 152, [4-Methyl-3-(4-phenethyl-piperazine-1-sulfonyl)-phenyl]-acetic acid]
